The target in the assay is 4-aminobutyrate aminotransferase (Sus scrofa) (UniProt P80147). In words: Kinact for pyridoxal 5'-phosphate (PLP)-dependent Gamma-amino-N-butyrate transaminase at pH 7.4.
Sequence of 4-aminobutyrate aminotransferase (Sus scrofa) (P80147 whole entry, looked up): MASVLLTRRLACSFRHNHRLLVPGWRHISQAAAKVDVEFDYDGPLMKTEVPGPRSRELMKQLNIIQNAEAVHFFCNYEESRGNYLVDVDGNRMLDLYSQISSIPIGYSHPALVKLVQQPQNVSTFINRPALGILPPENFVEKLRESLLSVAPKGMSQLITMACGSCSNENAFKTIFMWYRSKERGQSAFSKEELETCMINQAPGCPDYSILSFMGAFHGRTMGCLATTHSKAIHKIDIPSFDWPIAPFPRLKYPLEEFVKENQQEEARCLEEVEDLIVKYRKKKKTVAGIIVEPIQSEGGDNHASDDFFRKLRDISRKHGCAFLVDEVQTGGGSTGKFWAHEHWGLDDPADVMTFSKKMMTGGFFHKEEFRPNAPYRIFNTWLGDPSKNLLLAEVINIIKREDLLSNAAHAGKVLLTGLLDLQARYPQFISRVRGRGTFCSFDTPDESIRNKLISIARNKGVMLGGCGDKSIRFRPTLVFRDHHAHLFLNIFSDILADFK

In turn, `NC1C=C(C(=O)O)OC1` (stereo unspecified) yielded a K inact of 2.4 min⁻¹.

The values above are taken from ChEMBL document CHEMBL1148244, “Inactivation of gamma-aminobutyric acid aminotransferase by (S)-4-amino-4,5-dihydro-2-furancarboxylic acid does not proceed by the expected aromatization mechanism” (Bioorg Med Chem Lett, 2004).
